Assay results published in patent US4382945A, “Tetrahydrothiepino[4,5-d]imidazole derivatives, composition and method of use” (Hoffmann-La Roche Inc., priority 1980, dated 1983).
Counter-ions that a name gives are not always drawn.

Columns and labels:
[1] = system: Human platelet-rich plasma (collagen-induced blood platelet aggregation); test: Collagen-induced blood platelet aggregation (aggregometer method of BORN); assay type: cell-based; conditions: 10 min; human citrated platelet-rich plasma; 37° C., 10 minutes incubation; collagen-fibrils; maximum aggregation velocity as test parameter
Description: Human platelet-rich plasma was obtained by centrifugation from citrated venous blood. The experiments were carried out with suspensions of the test substances in 0.9% sodium chloride. 0.18 ml of citrate plasma were treated with a 10 μl suspension of the test compounds and incubated at 37° C. for 10 minutes, whereupon the aggregation was initiated by the addition of 10 μl of a suspension of collagen-fibrils.

Plasma glucose = test: Antihyperglycemic activity: plasma glucose concentration after oral glucose load in fasted rats; assay type: in vivo; conditions: percentages of the controls, rats fasted 24 hours, 0.3 mmol/kg p.o., glucose 1.6 g/kg orally 100 minutes later, plasma 20 minutes after glucose, averages
Description: Gum arabic (12 control animals) or 0.3 mmol/kg p.o. of test substance (6 experimental animals) is administered to rats (fasted for 24 hours) and 100 minutes later a suspension of 1.6 g of glucose in 10 ml of 5 percent gum arabic is administered orally per kg body weight. The animals are killed 20 minutes after the glucose administration. Plasma is obtained from the heparinized mixed blood. The glucose concentration in the plasma is determined according to the hexokinase method.

`CC1(C)CSCC(C)(C)c2[nH]c(-c3ccccc3)nc21` [2-Phenyl-4,5,7,8-tetrahydro-4,4,8,8-tetramethyl-1-H-thiepino[4,5-d]-imidazole hydrochloride] was tested, and the EC50 [1] was 0.8 µM and the “Plasma glucose concentration (%)” value (Plasma glucose; listed as 2-Phenyl-4,5,7,8-tetrahydro-4,4,8,8-tetramethyl-1-H-thiepino-8 4,5-d]-imidazole , hydrochloride) was 67%.
For `CC1(C)CSCC(C)(C)c2[nH]c(-c3cccs3)nc21` [4,5,7,8-Tetrahydro-4,4,8,8-tetramethyl-2-(2-thienyl)-1-H-thiepino[4,5-d]-imidazole hydrochloride], the EC50 [1] was 19.7 µM.
Work on `CC1(C)CSCC(C)(C)c2[nH]c(-c3ccc4c(c3)OCO4)nc21` [2-(3,4-Methylenedioxyphenyl)-4,5,7,8-tetrahydro-4,4,8,8-tetramethyl-1-H-thiepino[4,5-d]imidazole hydrochloride] yielded an EC50 [1] of 1.2 µM.
`CC1(C)CSCC(C)(C)c2[nH]c(-c3ccc(F)cc3)nc21` [2-(p-Fluorophenyl)-4,5,7,8-tetrahydro-4,4,8,8-tetramethyl-1-H-thiepino-[4,5-d]imidazole hydrochloride] was tested, and the EC50 [1] was 4.7 µM and the “Plasma glucose concentration (%)” value (Plasma glucose) was 77%.
For `CC1(C)CSCC(C)(C)c2[nH]c(-c3ccccc3)nc21` [2-phenyl-4,5,7,8-tetrahydro-4,4,8,8-tetramethyl-1-H-thiepino[4,5-d]imidazole], the “Plasma glucose concentration (%)” value (Plasma glucose) was 74%.
Molecule `COc1ccc(-c2nc3c([nH]2)C(C)(C)CSCC3(C)C)cc1` [2-(p-Methoxyphenyl)-4,5,7,8-tetrahydro-4,4,8,8-tetramethyl-1-H-thiepino-[4,5-d]imidazole hydrochloride] has an EC50 [1] of 4.2 µM.
